Test system: 997726-040-R-J2-PDC tumor spheroids, viability
Experiment: Anticancer human tumor 997726-040-R-J2-PDC patient-derived squamous cell lung carcinoma cell line growth inhibition [PI3K]
Details: spheroids with HUVEC and MSC; for IC50: curve of first compound; for viability, T/C: stronger effect = lower value
Method in brief: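 Combination activity was assessed by viability in multicellular tumor spheroids carrying HUVEC and MSC components. Agents were tested with PI3K inhibitors from a Cmax-based top dose (or 10 microM) downward in half-log increments.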
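Note: spheroids exposed to compounds for seven days before readout.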

`Cn1cnc2c(F)c(Nc3ccc(Br)cc3Cl)c(C(=O)NOCCO)cc21` + CC(Nc1ccc2c(c1)OCCn1cc(N3C(=O)OCC3C(F)F)nc1-2)C(N)=O showed an IC50 (second compound 0.00316 µM) of 154 nM, an IC50 (second compound 0.01 µM) of 82.4 nM and an IC50 (second compound 0.0316 µM) of 13.8 nM. It also gave an IC50 (second compound 0.1 µM) of less than 9.49 nM, an IC50 (second compound 0.316 µM) of less than 9.49 nM and an IC50 (second compound 1 µM) of less than 9.49 nM. The viability, T/C (second compound 0.00316 µM, first compound 0.00949 µM) was 70.5%, the viability, T/C (second compound 0.00316 µM, first compound 0.03 µM) was 65% and the viability, T/C (second compound 0.00316 µM, first compound 0.0949 µM) was 58.1%. For the same compound, the viability, T/C (second compound 0.00316 µM, first compound 0.3 µM) was 39.1%, the viability, T/C (second compound 0.00316 µM, first compound 0.949 µM) was 35.8% and the viability, T/C (second compound 0.00316 µM, first compound 3 µM) was 29.1%. For the same compound, the viability, T/C (second compound 0.01 µM, first compound 0.00949 µM) was 62%, the viability, T/C (second compound 0.01 µM, first compound 0.03 µM) was 59% and the viability, T/C (second compound 0.01 µM, first compound 0.0949 µM) was 47.6%. It also gave a viability, T/C (second compound 0.01 µM, first compound 0.3 µM) of 40.8%, a viability, T/C (second compound 0.01 µM, first compound 0.949 µM) of 39.2% and a viability, T/C (second compound 0.01 µM, first compound 3 µM) of 30.9%. The viability, T/C (second compound 0.0316 µM, first compound 0.00949 µM) was 49.1%, the viability, T/C (second compound 0.0316 µM, first compound 0.03 µM) was 50.8% and the viability, T/C (second compound 0.0316 µM, first compound 0.0949 µM) was 42.2%. The viability, T/C (second compound 0.0316 µM, first compound 0.3 µM) was 30.2%, the viability, T/C (second compound 0.0316 µM, first compound 0.949 µM) was 28.2% and the viability, T/C (second compound 0.0316 µM, first compound 3 µM) was 21.1%. It also gave a viability, T/C (second compound 0.1 µM, first compound 0.00949 µM) of 36.6%, a viability, T/C (second compound 0.1 µM, first compound 0.03 µM) of 42% and a viability, T/C (second compound 0.1 µM, first compound 0.0949 µM) of 33%. For the same compound, the viability, T/C (second compound 0.1 µM, first compound 0.3 µM) was 22.1%, the viability, T/C (second compound 0.1 µM, first compound 0.949 µM) was 21% and the viability, T/C (second compound 0.1 µM, first compound 3 µM) was 14%. It also gave a viability, T/C (second compound 0.316 µM, first compound 0.00949 µM) of 32.1%, a viability, T/C (second compound 0.316 µM, first compound 0.03 µM) of 27.9% and a viability, T/C (second compound 0.316 µM, first compound 0.0949 µM) of 23.7%. The viability, T/C (second compound 0.316 µM, first compound 0.3 µM) was 20.5%, the viability, T/C (second compound 0.316 µM, first compound 0.949 µM) was 14% and the viability, T/C (second compound 0.316 µM, first compound 3 µM) was 15%. For the same compound, the viability, T/C (second compound 1 µM, first compound 0.00949 µM) was 24.5%, the viability, T/C (second compound 1 µM, first compound 0.03 µM) was 22.4% and the viability, T/C (second compound 1 µM, first compound 0.0949 µM) was 21.7%. It also gave a viability, T/C (second compound 1 µM, first compound 0.3 µM) of 20.3%, a viability, T/C (second compound 1 µM, first compound 0.949 µM) of 15% and a viability, T/C (second compound 1 µM, first compound 3 µM) of 12.9%.

`CC1(C)CCC(Nc2ncc(C(F)(F)F)c(-c3c[nH]c4c(P(C)(C)=O)c(C#N)ccc34)n2)CN1` (centres undefined) + Cc1nc(NC(=O)N2CCCC2C(N)=O)sc1-c1ccnc(C(C)(C)C(F)(F)F)c1 was tested, and the IC50 (second compound 0.0316 µM) was less than 31.6 nM, the IC50 (second compound 0.1 µM) was less than 31.6 nM and the IC50 (second compound 0.316 µM) was less than 31.6 nM. The IC50 (second compound 1 µM) was less than 31.6 nM, the IC50 (second compound 3.16 µM) was less than 31.6 nM and the IC50 (second compound 10 µM) was less than 31.6 nM. The viability, T/C (second compound 0.0316 µM, first compound 0.0316 µM) was 36.8%, the viability, T/C (second compound 0.0316 µM, first compound 0.1 µM) was 27% and the viability, T/C (second compound 0.0316 µM, first compound 0.316 µM) was 30.7%. The viability, T/C (second compound 0.0316 µM, first compound 1 µM) was 29.5%, the viability, T/C (second compound 0.0316 µM, first compound 3.16 µM) was 28.8% and the viability, T/C (second compound 0.0316 µM, first compound 10 µM) was 5.15%. The viability, T/C (second compound 0.1 µM, first compound 0.0316 µM) was 27.4%, the viability, T/C (second compound 0.1 µM, first compound 0.1 µM) was 28.1% and the viability, T/C (second compound 0.1 µM, first compound 0.316 µM) was 27.4%. For the same compound, the viability, T/C (second compound 0.1 µM, first compound 1 µM) was 29.9%, the viability, T/C (second compound 0.1 µM, first compound 3.16 µM) was 29.9% and the viability, T/C (second compound 0.1 µM, first compound 10 µM) was 5.28%. It also gave a viability, T/C (second compound 0.316 µM, first compound 0.0316 µM) of 23.7%, a viability, T/C (second compound 0.316 µM, first compound 0.1 µM) of 21.8% and a viability, T/C (second compound 0.316 µM, first compound 0.316 µM) of 21.5%. It also gave a viability, T/C (second compound 0.316 µM, first compound 1 µM) of 24.9%, a viability, T/C (second compound 0.316 µM, first compound 3.16 µM) of 21.8% and a viability, T/C (second compound 0.316 µM, first compound 10 µM) of 2.81%. For the same compound, the viability, T/C (second compound 1 µM, first compound 0.0316 µM) was 16.4%, the viability, T/C (second compound 1 µM, first compound 0.1 µM) was 13.5% and the viability, T/C (second compound 1 µM, first compound 0.316 µM) was 16%. The viability, T/C (second compound 1 µM, first compound 1 µM) was 17.5%, the viability, T/C (second compound 1 µM, first compound 3.16 µM) was 18.1% and the viability, T/C (second compound 1 µM, first compound 10 µM) was 1.51%. The viability, T/C (second compound 3.16 µM, first compound 0.0316 µM) was 14.2%, the viability, T/C (second compound 3.16 µM, first compound 0.1 µM) was 11.1% and the viability, T/C (second compound 3.16 µM, first compound 0.316 µM) was 11.9%. It also gave a viability, T/C (second compound 3.16 µM, first compound 1 µM) of 12.9%, a viability, T/C (second compound 3.16 µM, first compound 3.16 µM) of 11.5% and a viability, T/C (second compound 3.16 µM, first compound 10 µM) of 1.02%. The viability, T/C (second compound 10 µM, first compound 0.0316 µM) was 7.35%, the viability, T/C (second compound 10 µM, first compound 0.1 µM) was 6.65% and the viability, T/C (second compound 10 µM, first compound 0.316 µM) was 6.01%. It also gave a viability, T/C (second compound 10 µM, first compound 1 µM) of 7.48%, a viability, T/C (second compound 10 µM, first compound 3.16 µM) of 6.58% and a viability, T/C (second compound 10 µM, first compound 10 µM) of 0.41%.

Source: PubChem BioAssay AID1963964 (Molecular Pharmacology Branch, DTP, NCI, 2024)
